Experimental data published in the NIST ThermoML archive (doi:10.1021/je300768j).
± gives the expanded uncertainty stated by the source.

Details: DTA

Glass transition temperature: -75.50 ± 3 °C
SMILES: CC(=O)[O-].CCn1cc[n+](C)c1 [1-ethyl-3-methylimidazolium acetate]
